This note sets out measurements from patent US4364958A, “1-Substituted-3-cycloalkyl-sulfonyl-pyrrolidine-2,5-dione derivatives and fungicidal compositions thereof” (Chinoin Gyogyszer es Vegyeszeti Termekek Gyara Rt., priority 1979, dated 1982).

In brackets after ≈: the same amount, converted by molar mass. Read-outs that look alike come from different tables or passages of the source.

Assay in all cases: minimal inhibitory concentration in Sabouraud medium
What all share (assay type): cell-based

The subject of experiment [1] is Penicillium digitatum CBS.31948. The conditions noted are these: Penicillium digitatum. The text has this:
Penicillium digitatum CBS.31948
(§1) As a medium Saboroud medium was employed.

Experiment [2] concerns Trichophyton rubrum CBS.30338. The conditions noted are these: Trichophyton rubrum.
From the text: Trichophyton rubrum CBS.30338
as §1

The subject of experiment [3] is Epidermophyton floccosum OKI/IV. As to conditions: Epidermophyton floccosum.
From the text: Epidermophyton floccosum OKI/IV.
as §1

Experiment [4] deals with Trichophyton mentagrophytes CBS.50148. As to conditions: Trichophyton mentagrophytes.
From the text: Trichophyton mentagrophytes CBS.50148
as §1

The subject of experiment [5] is Aspergillus niger CBS.12648. The conditions noted are these: Aspergillus niger.
From the text: Aspergillus niger CBS.12648
as §1

Experiment [6] has as its system Sporotrichum schenkii CBS.34035. The conditions noted are these: Sporotrichum.
From the text: Sporotrichum schenkii CBS.34035
as §1

The subject of a further experiment is Candida albicans CBS.562. As to conditions: Candida albicans.
From the text: Candida albicans CBS.562 "2"
as §1

The test system of experiment [7] is Saccharomyces cerevisiae OKI.1282. As to conditions: Saccharomyces cerevisiae.
From the text: Saccharomyces cerevisiae OKI.1282
as §1

The mark [8] stands for this setting: 72 h, read-out: minimal inhibitory concentration.
Where [9] appears, read: 144 h, read-out: minimal inhibitory concentration.
[10] abbreviates: 288 h, read-out: minimal inhibitory concentration.
Setting [11] is: read-out: Minimal inhibitory concentration inhibiting the growth.
The mark [12] stands for this setting: CBS.50148, 72 h, 72 hours, read-out: minimal inhibitory concentration.
Setting [13] is: CBS.50148, 144 h, 144 hours, read-out: minimal inhibitory concentration.
Setting [14] is: CBS.50148, 288 h, 288 hours, read-out: minimal inhibitory concentration.
Setting [15] is: CBS.50148, read-out: Minimal inhibitory concentration inhibiting the growth.

Turning to `COC(=O)c1ccc(N2C(=O)CC(S(=O)(=O)C3CCCCC3)C2=O)cc1OC(C)=O` (stereo not drawn) [Example 7, 1-(3-Acetoxy-4-methoxycarbonyl-phenyl)-3-cyclohexyl-sulfonyl-pyrrolidine-2,5-dione], the MIC is 50 µg/mL (≈ 114 µM) in experiment [1] (CBS.31948, 72 h, 72 hours); 50 µg/mL (≈ 114 µM) in experiment [1] (CBS.31948, 144 h, 144 hours); 100 µg/mL (≈ 229 µM) in experiment [1] (CBS.31948, 288 h, 288 hours); 25 µg/mL (≈ 57.1 µM) in experiment [2] (CBS.30338, 72 h, 72 hours); 25 µg/mL (≈ 57.1 µM) in experiment [2] (CBS.30338, 144 h, 144 hours); 50 µg/mL (≈ 114 µM) in experiment [2] (CBS.30338, 288 h, 288 hours). Besides, the MIC in experiment [3] (setting [8]) stood at 10 µg/mL (≈ 22.9 µM); in experiment [3] (setting [9]) it was 10 µg/mL (≈ 22.9 µM); in experiment [3] (setting [10]) it was 10 µg/mL (≈ 22.9 µM); in experiment [3] (setting [11]), 10 µg/mL (≈ 22.9 µM); in experiment [4] (setting [12]), 2.5 µg/mL (≈ 5.71 µM); in experiment [4] (setting [13]) it was 2.5 µg/mL (≈ 5.71 µM). Further, the MIC worked out at 2.5 µg/mL (≈ 5.71 µM) in experiment [4] (setting [14]); 2.5 µg/mL (≈ 5.71 µM) in experiment [4] (setting [15]); 200 µg/mL (≈ 457 µM) in experiment [5] (CBS.12648, 72 h, 72 hours); 200 µg/mL (≈ 457 µM) in experiment [5] (CBS.12648, 144 h, 144 hours); 200 µg/mL (≈ 457 µM) in experiment [5] (CBS.12648, 288 h, 288 hours); 50 µg/mL (≈ 114 µM) in experiment [6] (CBS.34035, 72 h, 72 hours). In addition, the MIC was 100 µg/mL (≈ 229 µM) in experiment [6] (CBS.34035, 144 h, 144 hours) and 150 µg/mL (≈ 343 µM) in experiment [6] (CBS.34035, 288 h, 288 hours).

For the molecule `Cc1ccccc1N1C(=O)CC(S(=O)(=O)C2CCCCC2)C1=O` (stereo not drawn) [1-(o-tolyl)-3-cyclohexyl-sulfonyl-pyrrolidine-2,5-dione], the MIC in experiment [1] (CBS.31948, 72 h, 72 hours) turned out to be 10 µg/mL (≈ 29.8 µM); in experiment [1] (CBS.31948, 144 h, 144 hours), 50 µg/mL (≈ 149 µM); in experiment [1] (CBS.31948, 288 h, 288 hours), 50 µg/mL (≈ 149 µM); in the experiment on Candida albicans CBS.562 (CBS.562, 24 h, 24 hours), 75 µg/mL (≈ 224 µM); against Candida albicans CBS.562 (CBS.562, 48 h, 48 hours), 100 µg/mL (≈ 298 µM); in experiment [2] (CBS.30338, 72 h, 72 hours) it was 10 µg/mL (≈ 29.8 µM). Besides, the MIC stood at 25 µg/mL (≈ 74.5 µM) in experiment [2] (CBS.30338, 144 h, 144 hours); 50 µg/mL (≈ 149 µM) in experiment [2] (CBS.30338, 288 h, 288 hours); 25 µg/mL (≈ 74.5 µM) in experiment [7] (OKI.1282, 24 h, 24 hours); 25 µg/mL (≈ 74.5 µM) in experiment [7] (OKI.1282, 48 h, 48 hours); 5 µg/mL (≈ 14.9 µM) in experiment [3] (setting [8]); 10 µg/mL (≈ 29.8 µM) in experiment [3] (setting [9]). Further, the MIC is 10 µg/mL (≈ 29.8 µM) in experiment [3] (setting [10]); 10 µg/mL (≈ 29.8 µM) in experiment [4] (setting [12]); 25 µg/mL (≈ 74.5 µM) in experiment [4] (setting [13]); 25 µg/mL (≈ 74.5 µM) in experiment [4] (setting [14]); 100 µg/mL (≈ 298 µM) in experiment [5] (CBS.12648, 72 h, 72 hours); 150 µg/mL (≈ 447 µM) in experiment [5] (CBS.12648, 144 h, 144 hours). The MIC in experiment [5] (CBS.12648, 288 h, 288 hours) was 150 µg/mL (≈ 447 µM); in experiment [6] (CBS.34035, 72 h, 72 hours), 10 µg/mL (≈ 29.8 µM); in experiment [6] (CBS.34035, 144 h, 144 hours), 25 µg/mL (≈ 74.5 µM); in experiment [6] (CBS.34035, 288 h, 288 hours), 50 µg/mL (≈ 149 µM).

For `O=C1CC(S(=O)(=O)C2CCCCC2)C(=O)N1c1cccc([N+](=O)[O-])c1` (stereo not drawn) [1-(3-nitrophenyl)-3-cyclohexyl-sulfonyl-pyrrolidine-2,5-dione], the MIC is 25 µg/mL (≈ 68.2 µM) in experiment [1] (CBS.31948, 72 h, 72 hours); 50 µg/mL (≈ 136 µM) in experiment [1] (CBS.31948, 144 h, 144 hours); 50 µg/mL (≈ 136 µM) in experiment [1] (CBS.31948, 288 h, 288 hours); 50 µg/mL (≈ 136 µM) in the experiment with Candida albicans CBS.562 (CBS.562, 24 h, 24 hours); 100 µg/mL (≈ 273 µM) with Candida albicans CBS.562 (CBS.562, 48 h, 48 hours); 5 µg/mL (≈ 13.6 µM) in experiment [2] (CBS.30338, 72 h, 72 hours). Further, the MIC in experiment [2] (CBS.30338, 144 h, 144 hours) is 5 µg/mL (≈ 13.6 µM); in experiment [2] (CBS.30338, 288 h, 288 hours), 5 µg/mL (≈ 13.6 µM); in experiment [7] (OKI.1282, 24 h, 24 hours), 75 µg/mL (≈ 205 µM); in experiment [7] (OKI.1282, 48 h, 48 hours) it was 75 µg/mL (≈ 205 µM); in experiment [3] (setting [8]), 5 µg/mL (≈ 13.6 µM); in experiment [3] (setting [9]), 10 µg/mL (≈ 27.3 µM). Also, the MIC worked out at 10 µg/mL (≈ 27.3 µM) in experiment [3] (setting [10]); 2.5 µg/mL (≈ 6.82 µM) in experiment [4] (setting [12]); 5 µg/mL (≈ 13.6 µM) in experiment [4] (setting [13]); 25 µg/mL (≈ 68.2 µM) in experiment [4] (setting [14]); 75 µg/mL (≈ 205 µM) in experiment [5] (CBS.12648, 72 h, 72 hours); 150 µg/mL (≈ 409 µM) in experiment [5] (CBS.12648, 144 h, 144 hours). Further, the MIC in experiment [5] (CBS.12648, 288 h, 288 hours) is 150 µg/mL (≈ 409 µM); in experiment [6] (CBS.34035, 72 h, 72 hours) it was 25 µg/mL (≈ 68.2 µM); in experiment [6] (CBS.34035, 144 h, 144 hours), 75 µg/mL (≈ 205 µM); in experiment [6] (CBS.34035, 288 h, 288 hours) it was 75 µg/mL (≈ 205 µM).

As for `O=C1CC(S(=O)(=O)C2CCCCC2)C(=O)N1` (stereo not drawn) [3-Cyclohexyl-sulfonyl-pyrrolidine-2,5-dione], the MIC is 50 µg/mL (≈ 204 µM) in experiment [1] (CBS.31948, 72 h, 72 hours); 50 µg/mL (≈ 204 µM) in experiment [1] (CBS.31948, 144 h, 144 hours); 50 µg/mL (≈ 204 µM) in experiment [1] (CBS.31948, 288 h, 288 hours); 50 µg/mL (≈ 204 µM) in experiment [2] (CBS.30338, 72 h, 72 hours); 75 µg/mL (≈ 306 µM) in experiment [2] (CBS.30338, 144 h, 144 hours); 75 µg/mL (≈ 306 µM) in experiment [2] (CBS.30338, 288 h, 288 hours). The MIC in experiment [3] (setting [8]) was 25 µg/mL (≈ 102 µM); in experiment [3] (setting [9]) it was 25 µg/mL (≈ 102 µM); in experiment [3] (setting [10]) it was 25 µg/mL (≈ 102 µM); in experiment [3] (setting [11]), 25 µg/mL (≈ 102 µM); in experiment [4] (setting [12]), 50 µg/mL (≈ 204 µM); in experiment [4] (setting [13]), 50 µg/mL (≈ 204 µM). The MIC was 75 µg/mL (≈ 306 µM) in experiment [4] (setting [14]); 50 µg/mL (≈ 204 µM) in experiment [4] (setting [15]); 150 µg/mL (≈ 611 µM) in experiment [6] (CBS.34035, 72 h, 72 hours); 150 µg/mL (≈ 611 µM) in experiment [6] (CBS.34035, 144 h, 144 hours); 150 µg/mL (≈ 611 µM) in experiment [6] (CBS.34035, 288 h, 288 hours).
